Where a SMILES comes first, the peptide text is derived from it.
Tests used:
Type in all cases: biochemical, bovine
[1] = target: T1, farnesyl-protein transferase (Bos taurus, UniProt P29702+P49355); assay: Tetrapeptides tested as farnesylation substrates (TLC / autoradiography); details: for Farnesylation Substrate: peptide 200 µM, partially pure bovine farnesyl-protein transferase, 0.5 µM [3H] FPP, 30 min. at 30°C
T1 construct: partially pure bovine brain farnesyl-protein transferase; from tissue; host or cells: bovine brain (cerebral lobes)
Source text: When a peptide was used as the acceptor substrate, there were two changes to the assay: (1) Ras protein was excluded and, (2) the reactions were stopped by the additon of one tenth volume of 0.5 M EDTA. A portion of the reaction mixture was spotted onto a TLC plate (silica gel 60 thin layer chromatography plates (20 cm x 20 cm, 0.25 mm layer thickness) were from E. Merck (Darrnstadt) and eluted with either ethyl acetate:pyridine: acetic acid:water (10:5:1:3) or n-propanol:water (7:3) elution systems. After drying under vacuum, the plates were sprayed with En³Hance and exposed to X-ray film at -70°C.
CAAX tetrapeptides and other tetrapeptides including Cys-Xaa¹-Xaa²-Xaa³-NRR¹ were tested as farnesylation substrates using [³H]FPP and partially pure bovine brain farnesyl-protein transferase. […] Thin layer chromatography (TLC) conditions were developed which resolved the substrates farnesyl diphosphate (Rf = 0.06) and CVLS (Rf = 0.28) and product S-farnesyl-CVLS (Rf = 0.58). These Rf values reflect TLC conditions using ethylacetate:pyridine: acetic acid:water (10:5:1:3) as the eluent. In another elution system, n-propanol:water (7:3), farnesyl-diphosphate (Rf= 0.18) was readily seperated from farnesylated tetrapeptides (examples: CAIS (Rf=0.84) and CAIM (Rf=0.83)). Quenched reaction mixtures containing peptide, farnesyl-diphosphate and farnesyl-protein transferase were separated by TLC followed by visualization of the radioactive species by autoradiography. […] Control peptides having a Cys to Ser substitution were not substrates.
The indicated peptides at 200 µM were incubated with partially pure bovine farnesyl-protein transferase and 0.5 µM [3H] FPP for 30 min. at 30°C. Autoradiographic exposure time was overnight (15-20 hr).

[2] = target: T1, farnesyl-protein transferase; assay: Inhibition of Ras farnesylation in vitro; details: Ras-CVLS at 3.5 µM, 0.25 µM [³H]FPP, partially purified enzyme; average of 2-5 determinations; read-out: IC₅₀
Experimental: Polyisoprenylation of Ras- [³H]Farnesyl diphosphate (FPP) (20 Ci/mmol) was purchased from New England Nuclear. Farnesyl-protein transferase activity assays were carried out at 30°C unless noted otherwise. A typical reaction contained (in a final volume of 50 µl):[³H]farnesyl diphosphate, Ras protein (3.5µM), 50 mM HEPES, pH 7.5, 5 mM MgCl₂ 5 mM dithiothreitol and farnesyl-protein transferase. After thermally pre-equilibrating the assay mixture in the absence of enzyme, reactions were initiated by the addition of farnesyl-protein transferase and stopped at timed intervals by the addition of 1M HCl in ethanol (1 mL). The quenched reactions were allowed to stand for 15 minutes (to complete the precipitation process). After adding 2 mL of 100% ethanol, the reactions were vacuum-filtered through Whatmann GF/C filters. Filters were washed four time with 2 mL aliquots of 100% ethanol, mixed with scintillation fluid (10 mL) and then counted in a Beckmann LS3801 scintillation couter.
For inhibition studies, assays were run as described above, except putative inhibitors were added at the concentration indicated, IC₅₀ values were determined with both farnesyl-protein transferase substrates at their KM concentrations. The KM for Ras protein substrate having the CAAX sequence, CVLS, is 3.5 µM and the KM for FPP is 0.25µM.
Ras proteins used as substrates were expressed in E. coli and purified. […]

[3] = target: T1, farnesyl-protein transferase; assay: Mechanism of inhibition using homogenous, pure farnesyl-protein transferase
Experimental: To prepare pure enzyme, the nonapeptide, […], was covalently bound to Affigel-10 under anhydrous conditions as described by the manufacturer (15 µmol peptide per 1 mL of Affigel-10). Unreacted resin was treated with ethanolamine. After multiple passes of ω-aminooctyl-agarose-column-purified protein over the peptide column, the column was washed and eluted as described by Reiss, et al., (1990) ibid, to recover farnesyl-protein transferase activity.

## CSCC[C@H](NC(=O)[C@H](Cc1ccccc1)NC(=O)[C@@H](NC(=O)[C@@H](N)CS)C(C)C)C(N)=O [CVFM-NH₂, Cys-Val-Phe-Met-NH₂] (H-CVFM-NH2)
[1]
  Farnesylation Substrate: - (< 1% conversion)
[2]
  IC50: 2.3 µM

## CC(C)C[C@H](NC(=O)[C@@H](NC(=O)[C@@H](N)CS)C(C)C)C(=O)N[C@@H](CO)C(N)=O [CVLS-NH₂, Cys-Val-Leu-Ser-NH₂] (H-CVLS-NH2)
[1]; [³H]FPP, partially pure bovine brain farnesyl-protein transferase
  farnesylation substrate (result in words, TLC autoradiography): do not serve as effective substrates
[1]
  Farnesylation Substrate: - (< 1% conversion)
[2]
  IC50: 16 µM
[3]
  mechanism of inhibition with respect to Ras-CVLS protein substrate: competitive inhibitor
  mechanism of inhibition with respect to farnesyl diphosphate: not a competitive inhibitor

Source: EP0528486A2, “Non-substrate inhibitors of farnesyl protein transferase” (MERCK & CO. INC., priority 1991, dated 1993)
